Counter-ions that a name gives are not always drawn.

For the compound `Cc1ccc(C(NC(=O)C2(c3ccc4c(c3)CN(S(C)(=O)=O)C4)CC2)c2ccc(Cl)o2)c(N2CCCC2)c1` (stereo not shown) (as salt: HCl) [Cpd. 80, N-[(5-chlorofuran-2-yl)[4-methyl-2-(pyrrolidin-1-yl)phenyl]methyl]-1-(2-methanesulfonyl-2,3-dihydro-1H-isoindol-5-yl)cyclopropane-1-carboxamide], the melting point stood at 82 °C.

`Cc1ccc(C(NC(=O)Cc2ccc3[nH]c(C)nc3c2)c2ccccc2)c(N2CCCC2)c1` (stereo not shown) (as salt: HCl) [Cpd. 82, 2-(2-methyl-1H-1,3-benzodiazol-5-yl)-N-{[4-methyl-2-(pyrrolidin-1-yl)phenyl](phenyl)methyl}acetamide]: the melting point is 132 °C.

As for `Cc1ccc(C(NC(=O)Cc2ccc3c(c2)CC(=O)N3)c2ccc(Cl)o2)c(N2CCCCC2)c1` (stereo not shown) (as salt: HCl) [Cpd. 83, N-[(5-chlorofuran-2-yl)[4-methyl-2-(piperidin-1-yl)phenyl]methyl]-2-(2-oxo-2,3-dihydro-1H-indol-5-yl)acetamide], the melting point was determined as 105 °C.

On to `Cc1ccc(C(NC(=O)C2(c3ccc4c(c3)CC(=O)N4)CC2)c2ccc(Cl)o2)c(C)c1` (stereo not shown) (as salt: HCl) [Cpd. 86, N-[(5-chlorofuran-2-yl)(2,4-dimethylphenyl)methyl]-1-(2-oxo-2,3-dihydro-1H-indol-5-yl)cyclopropane-1-carboxamide], for which the melting point stood at 78 °C.

The compound `Cc1ccc(C(NC(=O)C2(c3ccc4c(c3)CS(=O)(=O)N4)CC2)c2ccc(Cl)o2)c(C)c1` (stereo not shown) (as salt: HCl) [Cpd. 87, N-[(5-chlorofuran-2-yl)(2,4-dimethylphenyl)methyl]-1-(2,2-dioxo-1,3-dihydro-2,1-benzothiazol-5-yl)cyclopropane-1-carboxamide] yielded a melting point of 86 °C.

Compound `CCOc1nc2cc(CC(=O)NC(c3ccccc3)c3ccc(C)cc3Br)ccc2[nH]1` (stereo not shown) (as salt: HCl) [Cpd. 90, N-[(2-bromo-4-methylphenyl)(phenyl)methyl]-2-(2-ethoxy-1H-1,3-benzodiazol-5-yl)acetamide] returned a melting point of 189 °C.

`CSc1ccc2cc(CC(=O)NC(c3ccc(C)o3)c3ccc(C)cc3N3CCCCC3)ccc2c1` (stereo not shown) (as salt: HCl) [Cpd. 91, N-{[4-methyl-2-(piperidin-1-yl)phenyl](5-methylfuran-2-yl)methyl}-2-[6-(methylsulfanyl)naphthalen-2-yl]acetamide] gave a melting point of 134 °C.

`Cc1ccc(C(NC(=O)Cc2ccc3[nH]c(N4CCOCC4)nc3c2)c2ccc(C)o2)c(N2CCCCC2)c1` (stereo not shown) (as salt: HCl) [Cpd. 93, N-{[4-methyl-2-(piperidin-1-yl)phenyl](5-methylfuran-2-yl)methyl}-2-[2-(morpholin-4-yl)-1H-1,3-benzodiazol-5-yl]acetamide] gave a melting point of 125 °C.

`Cc1ccc(C(NC(=O)C2(c3ccc4c(c3)CCN4C(=O)C3CC3)CC2)c2ccc(C)o2)c(C)c1` (stereo not shown) (as salt: HCl) [Cpd. 95, 1-(1-cyclopropanecarbonyl-2,3-dihydro-1H-indol-5-yl)-N-[(2,4-dimethylphenyl)(5-methylfuran-2-yl)methyl]cyclopropane-1-carboxamide] registered a melting point of 70 °C.

Regarding `Cc1ccc(C(NC(=O)Cc2ccc3c(ccn3CCC(=O)OC(C)(C)C)c2)c2ccc(C)o2)c(N2CCCCC2)c1` (stereo not shown) (as salt: HCl) [Cpd. 96, tert-butyl 3-{5-[({[4-methyl-2-(piperidin-1-yl)phenyl](5-methylfuran-2-yl)methyl}carbamoyl)methyl]-1H-indol-1-yl}propanoate], the melting point amounted to 50 °C.

`Cc1ccc(C(NC(=O)Cc2ccc3[nH]cc(CCS(C)(=O)=O)c3c2)c2ccc(C)o2)c(N2CCCCC2)c1` (stereo not shown) (as salt: HCl) [Cpd. 98, 2-[3-(2-methanesulfonylethyl)-1H-indol-5-yl]-N-{[4-methyl-2-(piperidin-1-yl)phenyl](5-methylfuran-2-yl)methyl}acetamide] came in with a melting point of 107 °C.

`Cc1ccc(C(NC(=O)Cc2ccc3c(ccn3CCC(=O)OC(C)(C)C)c2)c2ccc(C)o2)c(C)c1` (stereo not shown) (as salt: HCl) [Cpd. 99, tert-butyl 3-[5-({[(2,4-dimethylphenyl)(5-methylfuran-2-yl)methyl]carbamoyl}methyl)-1H-indol-1-yl]propanoate] registered a melting point of 39 °C.

The compound `Cc1ccc(C(NC(=O)Cc2ccc3c(ccn3CCC(=O)OC(C)(C)C)c2)c2ccc(C)o2)c(Br)c1` (stereo not shown) (as salt: HCl) [Cpd. 100, tert-butyl 3-[5-({[(2-bromo-4-methylphenyl)(5-methylfuran-2-yl)methyl]carbamoyl}methyl)-1H-indol-1-yl]propanoate] came in with a melting point of 149 °C.

Take `Cc1ccc(C(NC(=O)Cc2ccc3[nH]cc(C(=O)CS(C)(=O)=O)c3c2)c2ccc(C)o2)c(N2CCCCC2)c1` (stereo not shown) (as salt: HCl) [Cpd. 103, 2-[3-(2-methanesulfonylacetyl)-1H-indol-5-yl]-N-{[4-methyl-2-(piperidin-1-yl)phenyl](5-methylfuran-2-yl)methyl}acetamide]: the melting point is 139 °C.

Regarding `Cc1ccc(C(NC(=O)Cc2ccc3[nH]cc(C(=O)CS(C)(=O)=O)c3c2)c2ccc(C)o2)c(Br)c1` (stereo not shown) (as salt: HCl) [Cpd. 104, N-[(2-bromo-4-methylphenyl)(5-methylfuran-2-yl)methyl]-2-[3-(2-methanesulfonylacetyl)-1H-indol-5-yl]acetamide], the melting point was determined as 206 °C.

Compound `Cc1ccc(C(NC(=O)Cc2ccc3[nH]cc(C(=O)CS(C)(=O)=O)c3c2)c2ccc(C)o2)c(C)c1` (stereo not shown) (as salt: HCl) [Cpd. 107, N-[(2,4-dimethylphenyl)(5-methylfuran-2-yl)methyl]-2-[3-(2-methanesulfonylacetyl)-1H-indol-5-yl]acetamide] yielded a melting point of 213 °C.

With `Cc1ccc(C(NC(=O)C2(c3ccc4[nH]ccc4c3)CC2)c2ccc(C)o2)c(C)c1` (stereo not shown) (as salt: HCl) [Cpd. 108, N-[(2,4-dimethylphenyl)(5-methylfuran-2-yl)methyl]-1-(1H-indol-5-yl)cyclopropane-1-carboxamide], the melting point was determined as 62 °C.

Compound `COc1ccc(C(NC(=O)Cc2ccc3c(ccn3CCC(=O)OC(C)(C)C)c2)c2ccc(C)o2)c(N2CCCCCC2)c1` (stereo not shown) (as salt: HCl) [Cpd. 110, tert-butyl 3-{5-[({[2-(azepan-1-yl)-4-methoxyphenyl](5-methylfuran-2-yl)methyl}carbamoyl)methyl]-1H-indol-1-yl}propanoate] had a melting point of 57 °C.

Take `Cc1ccc(C(NC(=O)Cc2ccc3ccn(C(=O)N4CCOCC4)c3c2)c2ccc(C)o2)c(N2CCCCC2)c1` (stereo not shown) (as salt: HCl) [Cpd. 114, N-{[4-methyl-2-(piperidin-1-yl)phenyl](5-methylfuran-2-yl)methyl}-2-[1-(morpholine-4-carbonyl)-1H-indol-6-yl]acetamide]: the melting point came to 85 °C.

Regarding `CNS(=O)(=O)c1c[nH]c2ccc(CC(=O)NC(c3ccc(C)o3)c3ccc(C)cc3N3CCCCC3)cc12` (stereo not shown) (as salt: HCl) [Cpd. 115, N-{[4-methyl-2-(piperidin-1-yl)phenyl](5-methylfuran-2-yl)methyl}-2-[3-(methylsulfamoyl)-1H-indol-5-yl]acetamide], the melting point stood at 119 °C.

The compound `Cc1ccc(C(NC(=O)Cc2ccc3[nH]cc(C(=O)N4CCOCC4)c3c2)c2ccc(C)o2)c(N2CCCCC2)c1` (stereo not shown) (as salt: HCl) [Cpd. 120, N-{[4-methyl-2-(piperidin-1-yl)phenyl](5-methylfuran-2-yl)methyl}-2-[3-(morpholine-4-carbonyl)-1H-indol-5-yl]acetamide] displayed a melting point of 124 °C.

Compound `COCC(=O)N1Cc2ccc(C3(C(=O)NC(c4ccc(C)o4)c4ccc(C)cc4C)CC3)cc2C1` (stereo not shown) (as salt: HCl) [Cpd. 122, N-[(2,4-dimethylphenyl)(5-methylfuran-2-yl)methyl]-1-[2-(2-methoxyacetyl)-2,3-dihydro-1H-isoindol-5-yl]cyclopropane-1-carboxamide] yielded a melting point of 55 °C.

`Cc1ccc(C(NC(=O)Cc2ccc3c(c2)CCN3C(=O)C2CC2)c2ccc(C)o2)c(N2CCCCC2)c1` (stereo not shown) (as salt: HCl) [Cpd. 123, 2-(1-cyclopropanecarbonyl-2,3-dihydro-1H-indol-5-yl)-N-{[4-methyl-2-(piperidin-1-yl)phenyl](5-methylfuran-2-yl)methyl}acetamide]: the melting point came out at 94 °C.

The compound `Cc1ccc(C(NC(=O)C2(c3ccc4c(c3)OCS(=O)(=O)N4)CC2)c2ccc(C)o2)c(C)c1` (stereo not shown) (as salt: HCl) [Cpd. 124, N-[(2,4-dimethylphenyl)(5-methylfuran-2-yl)methyl]-1-(2,2-dioxo-1,3-dihydro-4,2,1-benzoxathiazin-6-yl)cyclopropane-1-carboxamide] registered a melting point of 96 °C.

In the case of `Cc1ccc(C(NC(=O)C2(c3ccc4c(c3)C(=O)C(=O)N4)CC2)c2ccc(C)o2)c(C)c1` (stereo not shown) (as salt: HCl) [Cpd. 125, N-[(2,4-dimethylphenyl)(5-methylfuran-2-yl)methyl]-1-(2,3-dioxo-2,3-dihydro-1H-indol-5-yl)cyclopropane-1-carboxamide], the melting point came out at 192 °C.

The compound `CC(=O)N1CCc2cc(C3(C(=O)NC(c4ccc(C)o4)c4ccc(C)cc4C)CC3)ccc21` (stereo not shown) (as salt: HCl) [Cpd. 126, 1-(1-acetyl-2,3-dihydro-1H-indol-5-yl)-N-[(2,4-dimethylphenyl)(5-methylfuran-2-yl)methyl]cyclopropane-1-carboxamide] had a melting point of 75 °C.

Regarding `CC(=O)N1Cc2ccc(C3(C(=O)NC(c4ccc(C)o4)c4ccc(C)cc4C)CC3)cc2C1` (stereo not shown) (as salt: HCl) [Cpd. 127, 1-(2-acetyl-2,3-dihydro-1H-isoindol-5-yl)-N-[(2,4-dimethylphenyl)(5-methylfuran-2-yl)methyl]cyclopropane-1-carboxamide], the melting point is 72 °C.

`Cc1ccc(C(NC(=O)C2(c3ccc4c(c3)CC(=O)N4C)CC2)c2ccc(C)o2)c(C)c1` (stereo not shown) (as salt: HCl) [Cpd. 130, N-[(2,4-dimethylphenyl)(5-methylfuran-2-yl)methyl]-1-(1-methyl-2-oxo-2,3-dihydro-1H-indol-5-yl)cyclopropane-1-carboxamide]: the melting point was determined as 72 °C.

One may read the melting point as the temperature, or range, at which the solid turns liquid.
